Experimental data published in ChEMBL document CHEMBL1201862, “PubChem BioAssay data set” (2004).
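Following 48 hours of exposure in 96-well plates, responses at five concentrations were used to interpolate endpoints linearly. GI50: concentration for 50% inhibition of growth.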 Active and inactive are the calls of the source. Cut-off read from the data, not from the text of the source: active = GI50 up to about 1.1 µM and inactive = higher.

How the values were obtained:
Test in all cases: inhibition of tumour cell growth, NCI panel, 48 h
SF-295 = test system: SF-295
T47D = test system: T47D
COLO 205 = test system: COLO 205
KM12 = test system: KM12
MDA-MB-435 = test system: MDA-MB-435
SN12C = test system: SN12C
PC-3 = test system: PC-3
K562 = test system: K562
SK-MEL-28 = test system: SK-MEL-28
CAKI-1 = test system: CAKI-1
HCC 2998 = test system: HCC 2998
IGROV-1 = test system: IGROV-1
EKVX = test system: EKVX
NCI-H226 = test system: NCI-H226
786-0 = test system: 786-0
MOLT-4 = test system: MOLT-4
OVCAR-8 = test system: OVCAR-8
LOX IMVI = test system: LOX IMVI
SK-MEL-2 = test system: SK-MEL-2
RPMI-8226 = test system: RPMI-8226
Malme-3M = test system: Malme-3M
NCI-H522 = test system: NCI-H522
HCT-116 = test system: HCT-116
OVCAR-4 = test system: OVCAR-4
Hs-578T = test system: Hs-578T
HOP-62 = test system: HOP-62
U-251 = test system: U-251
UACC-62 = test system: UACC-62
OVCAR-5 = test system: OVCAR-5
SF-268 = test system: SF-268
UACC-257 = test system: UACC-257
NCI-H460 = test system: NCI-H460
SR = test system: SR
NCI/ADR-RES = test system: NCI/ADR-RES
M14 = test system: M14
SNB-75 = test system: SNB-75
OVCAR-3 = test system: OVCAR-3
SW-620 = test system: SW-620
SK-OV-3 = test system: SK-OV-3
BT-549 = test system: BT-549
ACHN = test system: ACHN
CCRF-CEM = test system: CCRF-CEM
MCF7 = test system: MCF7
RXF 393 = test system: RXF 393
SF-539 = test system: SF-539
DU-145 = test system: DU-145
HCT-15 = test system: HCT-15
HL-60 = test system: HL-60
A498 = test system: A498
NCI-H23 = test system: NCI-H23
SK-MEL-5 = test system: SK-MEL-5
MDA-MB-231 = test system: MDA-MB-231
HT-29 = test system: HT-29
A549 = test system: A549
SNB-19 = test system: SNB-19
HOP-92 = test system: HOP-92
TK-10 = test system: TK-10
MDA-N = test system: MDA-N
UO-31 = test system: UO-31

CC(=O)/N=C1/N(/C=C2\C(=O)Oc3ccccc3C2=O)C(=O)/C(=C/c2ccc(Cl)cc2Cl)N1C
GI50 (SF-295): > 100 µM (inactive) | GI50 (T47D): > 100 µM (inactive) | GI50 (COLO 205): > 100 µM (inactive) | GI50 (KM12): 66.8 µM (inactive) | GI50 (MDA-MB-435): 34.2 µM (inactive) | GI50 (SN12C): > 100 µM (inactive) | GI50 (PC-3): > 100 µM (inactive) | GI50 (K562): 39.4 µM (inactive) | GI50 (SK-MEL-28): 73.8 µM (inactive) | GI50 (CAKI-1): > 100 µM (inactive) | GI50 (HCC 2998): > 100 µM (inactive) | GI50 (IGROV-1): 40 µM (inactive) | GI50 (EKVX): 18.7 µM (inactive) | GI50 (NCI-H226): > 100 µM (inactive) | GI50 (786-0): > 100 µM (inactive) | GI50 (MOLT-4): 40.7 µM (inactive) | GI50 (OVCAR-8): > 100 µM (inactive) | GI50 (LOX IMVI): 62.2 µM (inactive) | GI50 (SK-MEL-2): 71.4 µM (inactive) | GI50 (RPMI-8226): 26.4 µM (inactive) | GI50 (Malme-3M): > 100 µM (inactive) | GI50 (NCI-H522): 94 µM (inactive) | GI50 (HCT-116): 81.1 µM (inactive) | GI50 (OVCAR-4): > 100 µM (inactive) | GI50 (Hs-578T): 0.991 µM (active) | GI50 (HOP-62): 48.3 µM (inactive) | GI50 (U-251): 52.6 µM (inactive) | GI50 (UACC-62): 26.2 µM (inactive) | GI50 (OVCAR-5): > 100 µM (inactive) | GI50 (SF-268): 28.8 µM (inactive) | GI50 (UACC-257): > 100 µM (inactive) | GI50 (NCI-H460): > 10 µM (inactive) | GI50 (SR): 17.4 µM (inactive) | GI50 (NCI/ADR-RES): > 100 µM (inactive) | GI50 (M14): > 100 µM (inactive) | GI50 (SNB-75): 18.7 µM (inactive) | GI50 (OVCAR-3): 59.2 µM (inactive) | GI50 (SW-620): 50.6 µM (inactive) | GI50 (SK-OV-3): > 100 µM (inactive) | GI50 (BT-549): 11.5 µM (inactive) | GI50 (ACHN): > 100 µM (inactive) | GI50 (CCRF-CEM): 66.8 µM (inactive) | GI50 (MCF7): > 100 µM (inactive) | GI50 (RXF 393): > 100 µM (inactive) | GI50 (SF-539): 25.6 µM (inactive) | GI50 (DU-145): > 100 µM (inactive) | GI50 (HCT-15): > 100 µM | GI50 (HL-60): 36.6 µM (inactive) | GI50 (A498): 19.2 µM (inactive) | GI50 (NCI-H23): > 100 µM (inactive) | GI50 (SK-MEL-5): 10.9 µM (inactive) | GI50 (MDA-MB-231): > 100 µM (inactive) | GI50 (HT-29): > 100 µM (inactive) | GI50 (A549): 96.6 µM (inactive)

Cc1ccc(-c2c(C#N)c(-c3ccc(Cl)cc3)c(C#N)c(=O)n2NS(=O)(=O)c2ccc(C)cc2)cc1
GI50 (SF-295): 24 µM (inactive) | GI50 (COLO 205): 42.1 µM (inactive) | GI50 (KM12): 22.5 µM (inactive) | GI50 (MDA-MB-435): 30.6 µM (inactive) | GI50 (SN12C): 39.4 µM (inactive) | GI50 (PC-3): 17.4 µM (inactive) | GI50 (K562): 33.9 µM (inactive) | GI50 (SK-MEL-28): 30.3 µM (inactive) | GI50 (CAKI-1): 34.1 µM (inactive) | GI50 (HCC 2998): 19.5 µM (inactive) | GI50 (IGROV-1): 29.2 µM (inactive) | GI50 (EKVX): 47.6 µM (inactive) | GI50 (NCI-H226): 39.8 µM (inactive) | GI50 (786-0): 42.4 µM (inactive) | GI50 (MOLT-4): 16.9 µM (inactive) | GI50 (OVCAR-8): 26.2 µM (inactive) | GI50 (LOX IMVI): 21.6 µM (inactive) | GI50 (SK-MEL-2): 14 µM (inactive) | GI50 (Malme-3M): 20.8 µM (inactive) | GI50 (NCI-H522): 23.1 µM (inactive) | GI50 (HCT-116): 20.5 µM (inactive) | GI50 (OVCAR-4): 26.6 µM (inactive) | GI50 (SNB-19): 36.3 µM (inactive) | GI50 (HOP-62): 19.5 µM (inactive) | GI50 (U-251): 36.2 µM (inactive) | GI50 (UACC-62): 18 µM (inactive) | GI50 (OVCAR-5): 43.3 µM (inactive) | GI50 (SF-268): 26.3 µM (inactive) | GI50 (HOP-92): 19.5 µM (inactive) | GI50 (UACC-257): 74 µM (inactive) | GI50 (NCI-H460): 27.4 µM (inactive) | GI50 (NCI/ADR-RES): 18.3 µM (inactive) | GI50 (M14): 19.5 µM (inactive) | GI50 (SNB-75): 30.1 µM (inactive) | GI50 (SW-620): 35.8 µM (inactive) | GI50 (SK-OV-3): 22.1 µM (inactive) | GI50 (BT-549): 23.5 µM (inactive) | GI50 (ACHN): 36.2 µM (inactive) | GI50 (CCRF-CEM): 20.7 µM (inactive) | GI50 (MCF7): 15.2 µM (inactive) | GI50 (RXF 393): 21 µM (inactive) | GI50 (SF-539): 18.7 µM (inactive) | GI50 (HCT-15): 28.2 µM | GI50 (A498): 35 µM (inactive) | GI50 (SK-MEL-5): 23.1 µM (inactive) | GI50 (MDA-MB-231): 38.5 µM (inactive) | GI50 (TK-10): 56.1 µM (inactive) | GI50 (HT-29): 37.2 µM (inactive) | GI50 (A549): 26.4 µM (inactive) | GI50 (MDA-N): 43.8 µM (inactive)

OC1CCN(c2c3ccccc3nc3ccccc23)CC1
GI50 (SF-295): 27.9 µM (inactive) | GI50 (T47D): 1.51 µM (inactive) | GI50 (COLO 205): 3.13 µM (inactive) | GI50 (UO-31): 2.45 µM (inactive) | GI50 (KM12): 37.2 µM (inactive) | GI50 (MDA-MB-435): 19.7 µM (inactive) | GI50 (SN12C): 32.4 µM (inactive) | GI50 (PC-3): 25.5 µM (inactive) | GI50 (K562): 4.01 µM (inactive) | GI50 (SK-MEL-28): 2.69 µM (inactive) | GI50 (CAKI-1): 20.1 µM (inactive) | GI50 (IGROV-1): 14.6 µM (inactive) | GI50 (EKVX): 55.2 µM (inactive) | GI50 (NCI-H226): 34.2 µM (inactive) | GI50 (786-0): 4.99 µM (inactive) | GI50 (MOLT-4): 4.73 µM (inactive) | GI50 (OVCAR-8): 24.8 µM (inactive) | GI50 (LOX IMVI): 4.52 µM (inactive) | GI50 (SK-MEL-2): 5.52 µM (inactive) | GI50 (RPMI-8226): 4.82 µM (inactive) | GI50 (Malme-3M): 9.82 µM (inactive) | GI50 (NCI-H522): 2.92 µM (inactive) | GI50 (HCT-116): 4.84 µM (inactive) | GI50 (OVCAR-4): 17.6 µM (inactive) | GI50 (SNB-19): 27.9 µM (inactive) | GI50 (Hs-578T): 35.1 µM (inactive) | GI50 (HOP-62): 34.4 µM (inactive) | GI50 (U-251): 21.5 µM (inactive) | GI50 (UACC-62): 35.5 µM (inactive) | GI50 (OVCAR-5): 51.8 µM (inactive) | GI50 (SF-268): 17.2 µM (inactive) | GI50 (HOP-92): 6.9 µM (inactive) | GI50 (UACC-257): 20.4 µM (inactive) | GI50 (NCI-H460): 21.3 µM (inactive) | GI50 (SR): 2.77 µM (inactive) | GI50 (NCI/ADR-RES): > 100 µM (inactive) | GI50 (M14): 6.92 µM (inactive) | GI50 (SNB-75): 23.8 µM (inactive) | GI50 (OVCAR-3): 7.23 µM (inactive) | GI50 (SW-620): 3.36 µM (inactive) | GI50 (SK-OV-3): 39.7 µM (inactive) | GI50 (BT-549): 17.7 µM (inactive) | GI50 (ACHN): 8.71 µM (inactive) | GI50 (MCF7): 2.79 µM (inactive) | GI50 (RXF 393): 4.55 µM (inactive) | GI50 (SF-539): 33 µM (inactive) | GI50 (DU-145): 5.22 µM (inactive) | GI50 (HCT-15): 16.5 µM | GI50 (HL-60): 8.61 µM (inactive) | GI50 (A498): 19 µM (inactive) | GI50 (NCI-H23): 8.02 µM (inactive) | GI50 (SK-MEL-5): 19.7 µM (inactive) | GI50 (MDA-MB-231): 25.1 µM (inactive) | GI50 (TK-10): 4.03 µM (inactive) | GI50 (HT-29): 2.28 µM (inactive) | GI50 (A549): 44.4 µM (inactive)
